Laboratory results reported in PubChem BioAssay AID2060491 (Molecular Pharmacology Branch, DTP, NCI, 2025).

Tested on: 857933-349-R-J2-PDC complex spheroids, viability
Test: Anticancer human tumor 857933-349-R-J2-PDC patient-derived colon adenocarcinoma cell line growth inhibition [GQUAD]
Conditions: for IC50: curve of first compound; for viability, T/C: stronger effect = lower value
Outline: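 Viability of tumor cells grown as complex spheroids with endothelial and stromal cells, exposed to drug combinations. Top concentration at or near clinical Cmax (else 10 microM), diluted in half-log increments.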

[1] = second compound 0.0316 µM, first compound 0.0316 µM
[2] = second compound 0.0316 µM, first compound 0.1 µM
[3] = second compound 0.0316 µM, first compound 0.316 µM
[4] = second compound 0.0316 µM, first compound 1 µM
[5] = second compound 0.0316 µM, first compound 3.16 µM
[6] = second compound 0.0316 µM, first compound 10 µM
[7] = second compound 0.1 µM, first compound 0.0316 µM
[8] = second compound 0.1 µM, first compound 0.1 µM
[9] = second compound 0.1 µM, first compound 0.316 µM
[10] = second compound 0.1 µM, first compound 1 µM
[11] = second compound 0.1 µM, first compound 3.16 µM
[12] = second compound 0.1 µM, first compound 10 µM
[13] = second compound 0.316 µM, first compound 0.0316 µM
[14] = second compound 0.316 µM, first compound 0.1 µM
[15] = second compound 0.316 µM, first compound 0.316 µM
[16] = second compound 0.316 µM, first compound 1 µM
[17] = second compound 0.316 µM, first compound 3.16 µM
[18] = second compound 0.316 µM, first compound 10 µM
[19] = second compound 1 µM, first compound 0.0316 µM
[20] = second compound 1 µM, first compound 0.1 µM
[21] = second compound 1 µM, first compound 0.316 µM
[22] = second compound 1 µM, first compound 1 µM
[23] = second compound 1 µM, first compound 3.16 µM
[24] = second compound 1 µM, first compound 10 µM
[25] = second compound 3.16 µM, first compound 0.0316 µM
[26] = second compound 3.16 µM, first compound 0.1 µM
[27] = second compound 3.16 µM, first compound 0.316 µM
[28] = second compound 3.16 µM, first compound 1 µM
[29] = second compound 3.16 µM, first compound 3.16 µM
[30] = second compound 3.16 µM, first compound 10 µM
[31] = second compound 10 µM, first compound 0.0316 µM
[32] = second compound 10 µM, first compound 0.1 µM
[33] = second compound 10 µM, first compound 0.316 µM
[34] = second compound 10 µM, first compound 1 µM
[35] = second compound 10 µM, first compound 3.16 µM
[36] = second compound 10 µM, first compound 10 µM
[37] = second compound 0.0316 µM, first compound 0.000999 µM
[38] = second compound 0.0316 µM, first compound 0.00316 µM
[39] = second compound 0.0316 µM, first compound 0.00999 µM
[40] = second compound 0.0316 µM, first compound 0.0999 µM
[41] = second compound 0.1 µM, first compound 0.000999 µM
[42] = second compound 0.1 µM, first compound 0.00316 µM
[43] = second compound 0.1 µM, first compound 0.00999 µM
[44] = second compound 0.1 µM, first compound 0.0999 µM
[45] = second compound 0.316 µM, first compound 0.000999 µM
[46] = second compound 0.316 µM, first compound 0.00316 µM
[47] = second compound 0.316 µM, first compound 0.00999 µM
[48] = second compound 0.316 µM, first compound 0.0999 µM
[49] = second compound 1 µM, first compound 0.000999 µM
[50] = second compound 1 µM, first compound 0.00316 µM
[51] = second compound 1 µM, first compound 0.00999 µM
[52] = second compound 1 µM, first compound 0.0999 µM
[53] = second compound 3.16 µM, first compound 0.000999 µM
[54] = second compound 3.16 µM, first compound 0.00316 µM
[55] = second compound 3.16 µM, first compound 0.00999 µM
[56] = second compound 3.16 µM, first compound 0.0999 µM
[57] = second compound 10 µM, first compound 0.000999 µM
[58] = second compound 10 µM, first compound 0.00316 µM
[59] = second compound 10 µM, first compound 0.00999 µM
[60] = second compound 10 µM, first compound 0.0999 µM
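Also: spheroids exposed to compounds for one week before readout.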
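For viability, T/C in this document: percent viability relative to vehicle DMSO wells taken as 100%.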

With C=CC(=O)N1CCN(c2nc(=O)n(-c3c(C)ccnc3C(C)C)c3nc(-c4c(O)cccc4F)c(F)cc23)C(C)C1 (stereo not drawn) + Cc1cnc(CNC(=O)c2c(=O)c3ccc(N4CCCN(C)CC4)nc3n3c2sc2ccccc23)cn1 the IC50 (second compound 0.0316 µM) was > 10000 nM, the IC50 (second compound 0.1 µM) was > 10000 nM and the IC50 (second compound 0.316 µM) was < 31.6 nM. The IC50 (second compound 1 µM) was < 31.6 nM, the IC50 (second compound 3.16 µM) was < 31.6 nM and the IC50 (second compound 10 µM) was < 31.6 nM. It also gave a viability, T/C [1] of 106%, a viability, T/C [2] of 85.1% and a viability, T/C [3] of 91.4%. The viability, T/C [4] was 88.1%, the viability, T/C [5] was 111% and the viability, T/C [6] was 79.3%. For the same compound, the viability, T/C [7] was 59.7%, the viability, T/C [8] was 69.3% and the viability, T/C [9] was 64.4%. The viability, T/C [10] was 73%, the viability, T/C [11] was 78.2% and the viability, T/C [12] was 67%. It also gave a viability, T/C [13] of 19.7%, a viability, T/C [14] of 25.7% and a viability, T/C [15] of 26.4%. It also gave a viability, T/C [16] of 22.1%, a viability, T/C [17] of 34.4% and a viability, T/C [18] of 30.8%. For the same compound, the viability, T/C [19] was 4.37%, the viability, T/C [20] was 5.36% and the viability, T/C [21] was 4.38%. It also gave a viability, T/C [22] of 4.4%, a viability, T/C [23] of 4.7% and a viability, T/C [24] of 5.94%. The viability, T/C [25] was 2.59%, the viability, T/C [26] was 2.48% and the viability, T/C [27] was 2.57%. It also gave a viability, T/C [28] of 3.03%, a viability, T/C [29] of 3.31% and a viability, T/C [30] of 2.69%. For the same compound, the viability, T/C [31] was 1.16%, the viability, T/C [32] was 1.17% and the viability, T/C [33] was 1.22%. It also gave a viability, T/C [34] of 1.56%, a viability, T/C [35] of 1.95% and a viability, T/C [36] of 1.37%.
In the case of CCc1c2c(nc3ccc(O)cc13)-c1cc3c(c(=O)n1C2)COC(=O)[C@]3(O)CC + Cc1cnc(CNC(=O)c2c(=O)c3ccc(N4CCCN(C)CC4)nc3n3c2sc2ccccc23)cn1, the IC50 (second compound 0.0316 µM) is reported as 3.53 nM, the IC50 (second compound 0.1 µM) is reported as 3.89 nM and the IC50 (second compound 0.316 µM) is reported as < 0.999 nM. For the same compound, the IC50 (second compound 1 µM) was < 0.999 nM, the IC50 (second compound 3.16 µM) was < 0.999 nM and the IC50 (second compound 10 µM) was < 0.999 nM. The viability, T/C [37] was 89%, the viability, T/C [38] was 43.6% and the viability, T/C [39] was 41.9%. It also gave a viability, T/C [1] of 16.5%, a viability, T/C [40] of 10.4% and a viability, T/C [3] of 8.23%. It also gave a viability, T/C [41] of 55.4%, a viability, T/C [42] of 55.9% and a viability, T/C [43] of 31.9%. The viability, T/C [7] was 11%, the viability, T/C [44] was 6.26% and the viability, T/C [9] was 3.59%. The viability, T/C [45] was 25.9%, the viability, T/C [46] was 17.3% and the viability, T/C [47] was 5.28%. For the same compound, the viability, T/C [13] was 2.97%, the viability, T/C [48] was 2.84% and the viability, T/C [15] was 0.55%. The viability, T/C [49] was 3.82%, the viability, T/C [50] was 3.55% and the viability, T/C [51] was 2.71%. The viability, T/C [19] was 1.95%, the viability, T/C [52] was 1.2% and the viability, T/C [21] was 0.14%. It also gave a viability, T/C [53] of 2.34%, a viability, T/C [54] of 1.9% and a viability, T/C [55] of 1.86%. The viability, T/C [25] was 0.77%, the viability, T/C [56] was 0.1% and the viability, T/C [27] was 0.13%. The viability, T/C [57] was 1.54%, the viability, T/C [58] was 0.97% and the viability, T/C [59] was 0.21%. The viability, T/C [31] was 0.17%, the viability, T/C [60] was 0.16% and the viability, T/C [33] was 0.19%.
For Cn1ncnc1[C@H]1c2n[nH]c(=O)c3cc(F)cc(c23)N[C@@H]1c1ccc(F)cc1 + Cc1cnc(CNC(=O)c2c(=O)c3ccc(N4CCCN(C)CC4)nc3n3c2sc2ccccc23)cn1, the IC50 (second compound 0.0316 µM) was > 316 nM, the IC50 (second compound 0.1 µM) was > 316 nM and the IC50 (second compound 0.316 µM) was < 0.999 nM. The IC50 (second compound 1 µM) was < 0.999 nM, the IC50 (second compound 3.16 µM) was < 0.999 nM and the IC50 (second compound 10 µM) was < 0.999 nM. The viability, T/C [37] was 88.5%, the viability, T/C [38] was 89.1% and the viability, T/C [39] was 93.4%. The viability, T/C [1] was 95%, the viability, T/C [40] was 88.9% and the viability, T/C [3] was 81.7%. For the same compound, the viability, T/C [41] was 59.6%, the viability, T/C [42] was 73.6% and the viability, T/C [43] was 62.5%. The viability, T/C [7] was 71.9%, the viability, T/C [44] was 73.5% and the viability, T/C [9] was 65.6%. It also gave a viability, T/C [45] of 28.8%, a viability, T/C [46] of 27.8% and a viability, T/C [47] of 27.1%. It also gave a viability, T/C [13] of 22.5%, a viability, T/C [48] of 29.8% and a viability, T/C [15] of 31.5%. It also gave a viability, T/C [49] of 7%, a viability, T/C [50] of 5.78% and a viability, T/C [51] of 5.4%. It also gave a viability, T/C [19] of 5.4%, a viability, T/C [52] of 5.1% and a viability, T/C [21] of 5.12%. For the same compound, the viability, T/C [53] was 2.09%, the viability, T/C [54] was 2.13% and the viability, T/C [55] was 2.38%. It also gave a viability, T/C [25] of 2.9%, a viability, T/C [56] of 3.1% and a viability, T/C [27] of 2.73%. The viability, T/C [57] was 1.74%, the viability, T/C [58] was 2.35% and the viability, T/C [59] was 2.39%. For the same compound, the viability, T/C [31] was 2.68%, the viability, T/C [60] was 2.08% and the viability, T/C [33] was 2.52%.
In the case of O=C(c1cc(Cc2n[nH]c(=O)c3ccccc23)ccc1F)N1CCN(C(=O)C2CC2)CC1 + Cc1cnc(CNC(=O)c2c(=O)c3ccc(N4CCCN(C)CC4)nc3n3c2sc2ccccc23)cn1, the IC50 (second compound 0.0316 µM) is reported as > 10000 nM, the IC50 (second compound 0.1 µM) is reported as > 10000 nM and the IC50 (second compound 0.316 µM) is reported as < 31.6 nM. The IC50 (second compound 1 µM) was < 31.6 nM, the IC50 (second compound 3.16 µM) was < 31.6 nM and the IC50 (second compound 10 µM) was < 31.6 nM. For the same compound, the viability, T/C [1] was 101%, the viability, T/C [2] was 88.6% and the viability, T/C [3] was 99.9%. It also gave a viability, T/C [4] of 83.7%, a viability, T/C [5] of 84.8% and a viability, T/C [6] of 77.8%. It also gave a viability, T/C [7] of 66%, a viability, T/C [8] of 80.9% and a viability, T/C [9] of 62%. For the same compound, the viability, T/C [10] was 58.4%, the viability, T/C [11] was 68.7% and the viability, T/C [12] was 72.3%. It also gave a viability, T/C [13] of 29.3%, a viability, T/C [14] of 31.1% and a viability, T/C [15] of 26.4%. It also gave a viability, T/C [16] of 31.4%, a viability, T/C [17] of 34% and a viability, T/C [18] of 38.4%. For the same compound, the viability, T/C [19] was 4.96%, the viability, T/C [20] was 4.81% and the viability, T/C [21] was 4.45%. It also gave a viability, T/C [22] of 3.67%, a viability, T/C [23] of 5.47% and a viability, T/C [24] of 6.38%. For the same compound, the viability, T/C [25] was 2.65%, the viability, T/C [26] was 2.92% and the viability, T/C [27] was 2.93%. It also gave a viability, T/C [28] of 3.33%, a viability, T/C [29] of 2.59% and a viability, T/C [30] of 2.87%. The viability, T/C [31] was 1.22%, the viability, T/C [32] was 2.2% and the viability, T/C [33] was 2.36%. The viability, T/C [34] was 1.84%, the viability, T/C [35] was 2.2% and the viability, T/C [36] was 1.68%.
